Results: the supplement of paper PMC10307832

Columns and labels:
Experiment in all cases: relative viability (nuclei count vs DMSO), 5 days (fraction); higher = more cells survive
[1] = compound: CCN(CCO)CCCC(C)Nc1ccnc2cc(Cl)ccc12 [Hydroxychloroquine] + COc1cc2c(Oc3ccc(NC(=O)C4(C(=O)Nc5ccc(F)cc5)CC4)cc3F)ccnc2cc1OCCCN1CCOCC1 [Foretinib] (partner 0.25 µM)
In short: (§1)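 The day after seeding in 1536-well plates, lung cancer cell lines were treated by pin tool with a single drug, or with a fixed anchor-drug dose together with five library-drug doses (not always all listed) in √10 steps. After 5 days, a combined fix-and-stain solution (final 0.05% Triton X-100, 1% formaldehyde, 1 ug/ml Hoechst) was added. Nuclei counted on 4× images gave relative viability as treated counts over vehicle counts, reported as the median of duplicate plates.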

[2] = compound: CCN(CCO)CCCC(C)Nc1ccnc2cc(Cl)ccc12 [Hydroxychloroquine] + NC(=O)Nc1cc(-c2cccc(F)c2)sc1C(=O)N[C@H]1CCCNC1 [AZD7762] (partner 0.2 µM)
In short: as §1

[3] = compound: CCN(CCO)CCCC(C)Nc1ccnc2cc(Cl)ccc12 [Hydroxychloroquine] + O=C(CCCCCCC(=O)Nc1ccccc1)NO [Vorinostat] (partner 1 µM)
In short: as §1

[4] = compound: CCN(CCO)CCCC(C)Nc1ccnc2cc(Cl)ccc12 [Hydroxychloroquine] + CS(=O)(=O)N1CCN(Cc2cc3nc(-c4cccc5[nH]ncc45)nc(N4CCOCC4)c3s2)CC1 [Pictilisib] (partner 1 µM)
In short: as §1

| Cell Line | relative viability ([1]; first compound 0.5 µM) | relative viability ([1]; first compound 1.581 µM) | relative viability ([1]; first compound 5 µM) | relative viability ([1]; first compound 15.81 µM) | relative viability ([1]; first compound 50 µM) | relative viability ([2]; first compound 0.5 µM) | relative viability ([2]; first compound 1.581 µM) | relative viability ([2]; first compound 5 µM) | relative viability ([2]; first compound 15.81 µM) | relative viability ([2]; first compound 50 µM) | relative viability ([3]; first compound 0.5 µM) | relative viability ([3]; first compound 1.581 µM) | relative viability ([3]; first compound 5 µM) | relative viability ([3]; first compound 15.81 µM) | relative viability ([3]; first compound 50 µM) | relative viability ([4]; first compound 0.5 µM) | relative viability ([4]; first compound 1.581 µM) | relative viability ([4]; first compound 5 µM) | relative viability ([4]; first compound 15.81 µM) | relative viability ([4]; first compound 50 µM) |
| --- | --- | --- | --- | --- | --- | --- | --- | --- | --- | --- | --- | --- | --- | --- | --- | --- | --- | --- | --- | --- |
| NCI-H1975 | 0.942 | 0.866 | 0.988 | 1.05 | 0.97 | 0.679 | 0.659 | 0.752 | 0.698 | 0.754 | 0.682 | 0.704 | 0.8 | 0.742 | 0.717 | 0.292 | 0.26 | 0.305 | 0.263 | 0.328 |
| NCI-H1437 | 1.26 | 1.26 | 1.33 | 1.31 | 1.28 | 1.13 | 1.15 | 1.08 | 1.14 | 1.14 | 0.853 | 0.862 | 0.85 | 0.844 | 0.891 | 0.341 | 0.49 | 0.412 | 0.421 | 0.439 |
| NCI-H1651 | 0.934 | 0.762 | 0.865 | 0.925 | 0.88 | 0.501 | 0.585 | 0.47 | 0.451 | 0.457 | 0.582 | 0.589 | 0.583 | 0.579 | 0.493 | 0.6 | 0.663 | 0.561 | 0.574 | 0.592 |
| LCLC-103H | 0.776 | 0.707 | 0.848 | 0.893 | 0.887 | 0.855 | 0.672 | 0.76 | 0.743 | 0.827 | 0.859 | 0.718 | 0.752 | 0.829 | 0.793 | 0.666 | 0.612 | 0.567 | 0.542 | 0.67 |
| NCI-H1666 | 0.969 | 0.949 | 0.876 | 0.894 | 0.872 | 0.891 | 0.791 | 0.806 | 0.774 | 0.72 | 0.991 | 0.943 | 1.01 | 0.92 | 0.936 | 0.519 | 0.409 | 0.377 | 0.477 | 0.402 |
| NCI-H1734 | 0.893 | 0.864 | 0.864 | 0.784 | 0.866 | 0.62 | 0.562 | 0.649 | 0.644 | 0.622 | 0.856 | 0.697 | 0.787 | 0.866 | 0.826 | 0.507 | 0.294 | 0.462 | 0.491 | 0.47 |
| EPLC-272H | 0.776 | 0.673 | 0.709 | 0.703 | 0.799 | 0.168 | 0.207 | 0.214 | 0.232 | 0.193 |  | 0.359 | 0.433 | 0.392 | 0.488 | 0.282 | 0.246 | 0.333 | 0.297 | 0.349 |
| BEN | 0.647 | 0.634 | 0.588 | 0.567 | 0.577 | 0.795 | 0.652 | 0.767 | 0.776 | 0.759 | 0.632 | 0.563 | 0.638 | 0.635 | 0.608 | 0.615 | 0.465 | 0.49 | 0.6 | 0.676 |
| ABC-1 | 0.761 | 0.984 | 1.18 | 1.25 | 1.28 | 0.754 | 0.917 | 0.797 | 0.995 | 0.711 | 1.33 | 1.19 | 1.11 | 0.934 | 1.19 | 0.75 | 0.761 | 0.783 | 0.815 | 0.737 |
| HCC-15 | 1.1 | 1.04 | 1.04 | 1.04 | 1.05 | 1.29 | 1.15 | 1.11 | 1.35 | 1.49 | 0.796 | 0.828 | 0.902 | 0.9 | 0.775 | 0.773 | 0.668 | 0.749 | 0.744 | 0.659 |
| NCI-H2170 | 1.04 | 1.04 | 0.973 | 1.01 | 1.1 | 0.925 | 0.918 | 0.867 | 0.882 | 1.09 | 0.784 | 0.839 | 0.829 | 0.878 | 0.95 | 0.327 | 0.294 | 0.282 | 0.284 | 0.333 |
| RERF-LC-KJ | 0.757 | 0.825 | 0.872 | 0.918 | 0.941 | 0.959 | 0.961 | 1.01 | 0.91 | 1.08 | 0.696 | 0.607 | 0.631 | 0.692 | 0.677 | 0.43 | 0.518 | 0.55 | 0.488 | 0.603 |
| NCI-H1993 | 0.867 | 0.711 | 0.735 | 0.887 | 0.79 | 0.699 | 0.597 | 0.927 | 0.79 | 0.817 | 0.828 | 0.837 | 0.599 | 0.656 | 0.727 | 0.824 | 0.961 | 0.625 | 0.81 | 0.789 |
| NCI-H358 | 0.639 | 0.628 | 0.643 | 0.593 | 0.827 | 0.498 | 0.566 | 0.534 | 0.436 | 0.442 | 0.695 | 0.731 | 0.72 | 0.673 | 0.655 | 0.32 | 0.274 | 0.281 | 0.327 | 0.328 |
| NCI-H1915 | 1.07 | 1.11 | 1.15 | 1.1 | 1.12 | 0.65 | 0.742 | 0.731 | 0.711 | 0.707 | 0.521 | 0.456 | 0.48 | 0.549 | 0.5 | 0.973 | 0.869 | 0.947 | 0.895 | 0.978 |
| LOU-NH91 | 0.921 | 0.831 | 0.949 | 0.94 | 0.914 | 0.762 | 0.646 | 0.776 | 0.744 | 0.828 | 0.89 | 0.72 | 0.88 | 0.933 | 0.868 | 0.531 | 0.488 | 0.567 | 0.509 | 0.488 |
| NCI-H2347 | 0.936 | 0.663 | 0.885 |  | 0.683 | 0.657 | 0.692 | 0.806 | 0.701 | 0.882 | 0.663 | 0.456 | 0.604 | 0.639 | 0.58 | 0.511 | 0.534 | 0.573 | 0.6 | 0.637 |
